# Results as given in patent US4394503A, “Cephalosporin derivatives” (priority 1981, dated 1983).
# Where two headings read alike, the source gives them in different places.
# Assays:
# [1] = in vivo; details: mouse, im
# Experimental: Blood samples were collected from the orbital sinuses into heparinized capillary tubes and assayed by the paper disc-agar diffusion method using E. coli as the test organism. The half-life values and areas under the curve were determined.
# [2] = tested on: B. fragilis A22533; experiment: MIC against selected test organisms (Table 2); assay type: cell-based; details: Bacteroides fragilis
# [3] = tested on: P. aeruginosa A20717; experiment: MIC against selected test organisms (Table 2); assay type: cell-based; details: Pseudomonas aeruginosa
# [4] = tested on: B. fragilis Group II; experiment: In vitro antianaerobic activity in GAM agar (Table 4); assay type: cell-based; details: Bacteroides fragilis, read-out: Geometric Mean of MIC, GAM agar, lactamase-producing, moderately ampicillin-resistant, 3 strains
# [5] = tested on: Ps. aeruginosa (Gn-III); experiment: In vitro antibacterial activity, two-fold agar dilution, Mueller-Hinton agar (Table 1), group Gn-III; assay type: cell-based; details: Pseudomonas aeruginosa; read-out: Geometric Mean of MIC
# [6] = tested on: B. fragilis Group III; experiment: In vitro antianaerobic activity in GAM agar (Table 4); assay type: cell-based; details: read-out: Geometric Mean of MIC, GAM agar, lactamase-producing, highly ampicillin-resistant, 2 strains
# [7] = tested on: E. coli A15148; experiment: MIC against selected test organisms (Table 2); assay type: cell-based; details: Escherichia coli
# [8] = tested on: Others Group IV (C. difficile, C. perfringens, P. acne and P. anaerobius); experiment: microbe, parasite or virus in culture; assay type: cell-based; details: read-out: Geometric Mean of MIC, GAM agar, 1 strain each
# [9] = tested on: S. marcescens A20019; experiment: MIC against selected test organisms (Table 2); assay type: cell-based; details: Serratia marcescens
# [10] = tested on: P. aeruginosa A9843; experiment: MIC against selected test organisms (Table 2); assay type: cell-based; details: Pseudomonas aeruginosa
# [11] = tested on: N. gonorrhoeae; experiment: In vitro activity against species of Streptococcus, Neisseria and Haemophilus (Table 3); assay type: cell-based; details: Neisseria gonorrhoeae, read-out: Geometric Mean of MIC
# [12] = tested on: B. fragilis Group I; experiment: In vitro antianaerobic activity in GAM agar (Table 4); assay type: cell-based; details: Bacteroides fragilis, read-out: Geometric Mean of MIC, GAM agar, nonlactamase-producing, ampicillin-sensitive, 3 strains
# [13] = tested on: S. aureus A15092; experiment: MIC against selected test organisms (Table 2); assay type: cell-based; details: Staphylococcus aureus, Gp-Ib, PC-R, read-out: Minimum Inhibitory Concentration
# [14] = tested on: S. aureus A9497; experiment: MIC against selected test organisms (Table 2); assay type: cell-based; details: Staphylococcus aureus, Gp-Ia, PC-S, read-out: Minimum Inhibitory Concentration
# [15] = tested on: S. aureus Smith; experiment: MIC against selected test organisms (Table 2); assay type: cell-based; details: Staphylococcus aureus; Gp-Ia, PC-S; read-out: Minimum Inhibitory Concentration
# [16] = tested on: E. cloacae A9656; experiment: MIC against selected test organisms (Table 2); assay type: cell-based; details: Enterobacter cloacae, Gn-II, CET-R, read-out: Minimum Inhibitory Concentration
# [17] = tested on: Penicillin-sensitive S. aureus (Gp-Ia); experiment: In vitro antibacterial activity, two-fold agar dilution, Mueller-Hinton agar (Table 1), group Gp-Ia; assay type: cell-based; details: Staphylococcus aureus; read-out: Geometric Mean of MIC
# [18] = tested on: S. aureus BX-1633; experiment: MIC against selected test organisms (Table 2); assay type: cell-based; details: Staphylococcus aureus, BX1633, read-out: Minimum Inhibitory Concentration
# [19] = Example 4, ceftazidime (mean of 3 experiments)
# [20] = Example 5 ceftazidime (mean of 2 experiments)
SMILES,AUC ([1]; 10 mg/kg) [ng·h/mL],concentration at 10 min ([1]; 10 mg/kg) [ng/mL],concentration at 20 min ([1]; 10 mg/kg) [ng/mL],concentration at 0.5 h ([1]; 10 mg/kg) [ng/mL],concentration at 40 min ([1]; 10 mg/kg) [ng/mL],concentration at 1 h ([1]; 10 mg/kg) [ng/mL],concentration at 1.5 h ([1]; 10 mg/kg) [ng/mL],half-life ([1]; 10 mg/kg) [min],AUC ([1]; 20 mg/kg) [ng·h/mL],concentration at 10 min ([1]; 20 mg/kg) [ng/mL],concentration at 20 min ([1]; 20 mg/kg) [ng/mL],concentration at 0.5 h ([1]; 20 mg/kg) [ng/mL],concentration at 40 min ([1]; 20 mg/kg) [ng/mL],concentration at 1 h ([1]; 20 mg/kg) [ng/mL],concentration at 1.5 h ([1]; 20 mg/kg) [ng/mL],half-life ([1]; 20 mg/kg) [min],MIC [5] [µg/mL],further results
"CC(C)(O/N=C(\C(=O)N[C@@H]1C(=O)N2C(C(=O)[O-])=C(C[n+]3ccccc3)CS[C@H]12)c1csc(N)n1)C(=O)O [Ceftazidime, ceftazidime, reference compound]",5500,8000,7800,5500,3900,1800,400,16,10000,18000,14000,11000,7700,2400,610,14,2,"MIC ([2]; A22533, read-out: Minimum Inhibitory Concentration): > 100 µg/mL; MIC ([3]; A20717, read-out: Minimum Inhibitory Concentration): 6.3 µg/mL; MIC [4, 19]: 13 µg/mL; MIC [4, 20]: 16 µg/mL; MIC [6, 19]: 81 µg/mL; MIC [6, 20]: > 100 µg/mL; MIC ([7]; A15148, read-out: Minimum Inhibitory Concentration): 0.4 µg/mL; MIC [8, 19]: 6.2 µg/mL; MIC [8, 20]: 8.2 µg/mL; MIC ([9]; A20019, read-out: Minimum Inhibitory Concentration): 0.1 µg/mL; MIC ([10]; A9843, read-out: Minimum Inhibitory Concentration): 1.6 µg/mL; MIC [11]: 0.1 µg/mL; MIC [12, 19]: 5.3 µg/mL; MIC [12, 20]: 8.9 µg/mL"
"CSc1cc[n+](CC2=C(C(=O)[O-])N3C(=O)C(NC(=O)/C(=N\OC(C)(C)C(=O)O)c4csc(N)n4)C3SC2)cc1 (stereo not drawn) [Example 2, 7-[(Z)-2-(2-Aminothiazol-4-yl)-2-(2-carboxyprop-2-oxyimino)-acetamido]-3-[(4-methylthiopyridinium)methyl]-3-cephem-4-carboxylate]",3700,4500,5100,3800,3200,1100,450,18,10000,12000,12000,9300,8700,4000,1200,16,3.1,"MIC ([2]; A22533, Anaerobe, AMP-R, read-out: Minimum Inhibitory Concentration): > 100 µg/mL; MIC ([3]; A20717, Gn-III, CET-R, read-out: Minimum Inhibitory Concentration): 6.3 µg/mL; MIC [13]: 6.3 µg/mL; MIC ([7]; A15148, Gn-Ib, CET-R, read-out: Minimum Inhibitory Concentration): 0.2 µg/mL; MIC [14]: 3.1 µg/mL; MIC [15]: 6.3 µg/mL; MIC ([9]; A20019, Gn-II, CET-R, read-out: Minimum Inhibitory Concentration): 0.4 µg/mL; MIC ([10]; A9843, Gn-III, CET-R, read-out: Minimum Inhibitory Concentration): 1.6 µg/mL; MIC [16]: 0.2 µg/mL; MIC ([11]; 4 strains): 0.013 µg/mL; MIC [17]: 4.7 µg/mL; MIC [18]: 6.3 µg/mL"
